From patent US20250026762A1, “FUSED PYRAZOLE UREA ANALOGS AS GLUCOSYLCERAMIDE SYNTHASE INHIBITORS” (Merck Sharp & Dohme LLC, priority 2021, published 2025)

Target: glucosylceramide synthase (GCS) enzyme in Golgi preparations from human A375 malignant melanoma skin cells (Homo sapiens (Human), UniProt Q16739)
Assay: UDP-Glo glucosylceramide synthase biochemical assay
Settings: 1.5 μg crude golgi preparation; C6 ceramide and UDP-glucose at 2×Km; 20 h incubation at room temperature; luminescence
Source text: UDP-Glo™ Glucosylceramide Synthase Biochemical Assay
A UDP-Glo™ glucosylceramide synthase biochemical assay was utilized to evaluate the effect of test compounds on the activity of endogenous levels of GCS enzyme contained within Golgi preparations isolated from human A375 malignant melanoma skin cells. The UDP-Glo™ glucosylceramide synthase assay uses UDP-Glucose as a nucleotide-glycosyl donor and ceramide as substrate acceptor molecules. In the reaction, glucosylceramide synthase (GCS) transfers glucose from UDP-Glucose to ceramide. Glucosylceramide and UDP are released as products.
Using Promega's UDP-Glo™ Glycosyltransferase assay kit (Promega Corporation, Madison, WI, USA (Promega)), GCS activity was indirectly measured by detecting the amount of UDP produced. An aliquot of GCS enzyme (1.5 μg crude golgi preparation, total protein) and titrated test compound were aliquoted to each well and incubated for 30 minutes at room temperature. Substrate mixture was prepared by mixing C6 ceramide (Avanti Polar Lipids, Alabaster, AL USA (Avanti)) (micelles prepared at 0.6 mM in 0.6 mM DOPC) and UDP-glucose (20 μM; Promega), at concentrations equivalent to 2×Km, in assay buffer (25 mM HEPES (pH 7.5), 50 mM KCl, 5 mM MgCl2). An equivalent volume of substrate mixture was then added to each well. Following a 20 h incubation at room temperature to allow for GCS turnover of substrate, an equal volume of UDP detection reagent (Promega) was added to each well and incubated for an additional 75 minutes at room temperature to simultaneously convert the accumulated UDP product into ATP and generate light in a luciferase reaction. The generated light was detected using a luminometer. […] luminescence values (RLUs) were normalized to mean “min” and “max” effects, as determined on each plate. “Min” was defined as the mean of the values of the wells treated with vehicle (DMSO) and which represent 0% inhibition; “max” was defined as the mean of the values of the wells treated with a reference inhibitor and which represent the 100% effect. Values for % Emax and EC50 were determined by best-fitting the normalized data to a curve in Activity Base along a four-parameter logistic nonlinear regression (4PL) model (based on the Levenberg-Marquardt algorithm and defined by the equation below): […]
where: n is 4PMin (bottom of the curve); m is 4PMax (top of the curve); i is IP (inflection point of curve); andp is slope. See Levenberg, K., “A Method for the Solution of Certain Problems in Least Squares”, Quart. Appl. Math. 2, (1944), pp 164-168 and Marquardt, D., “An Algorithm for Least Squares Estimation on Nonlinear Parameters”, SIAM J. Appl. Math. 11, (1963) pp 431-441.

Sequence of glucosylceramide synthase (GCS) enzyme in Golgi preparations from human A375 malignant melanoma skin cells (Q16739 whole entry): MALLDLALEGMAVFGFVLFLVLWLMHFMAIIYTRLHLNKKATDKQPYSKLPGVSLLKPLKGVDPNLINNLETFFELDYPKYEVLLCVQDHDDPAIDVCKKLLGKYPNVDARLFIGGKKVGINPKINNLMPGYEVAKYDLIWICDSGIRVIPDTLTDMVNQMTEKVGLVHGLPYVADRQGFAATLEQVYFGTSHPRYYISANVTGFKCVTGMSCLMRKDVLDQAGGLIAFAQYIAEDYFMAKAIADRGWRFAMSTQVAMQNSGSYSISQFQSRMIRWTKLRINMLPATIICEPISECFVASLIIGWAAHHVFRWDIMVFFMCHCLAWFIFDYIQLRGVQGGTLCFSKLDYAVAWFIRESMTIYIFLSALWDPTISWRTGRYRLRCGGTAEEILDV

SMILES	EC50 [nM]
Cc1cnn(-c2nn(C(=O)N3CCN4CCC3CC4)c3c2CCC3)c1 [Compound 57, (1,4-diazabicyclo[3.2.2]nonan-4-yl)(3-(4-methyl-1H-pyrazol-1-yl)-5,6-dihydrocyclopenta[c]pyrazol-1(4H)-yl)methanone]	9.2
COc1cnn(-c2nn(C(=O)N3CCN4CCC3CC4)c3c2CCC3)c1 [Compound 58, (1,4-diazabicyclo[3.2.2]nonan-4-yl)(3-(4-methoxy-1H-pyrazol-1-yl)-5,6-dihydrocyclopenta[c]pyrazol-1(4H)-yl)methanone]	10
O=C(N1CCN2CCC1CC2)n1nc(-n2cc(C(F)(F)F)cn2)c2c1CCOC2 [Compound 59, (1,4-diazabicyclo[3.2.2]nonan-4-yl)(3-(4-(trifluoromethyl)-1H-pyrazol-1-yl)-6,7-dihydropyrano[4,3-c]pyrazol-1(4H)-yl)methanone]	3.1
O=C(N1CCN2CCC1CC2)n1nc(-n2cc(Cl)cn2)c2c1CCOC2 [Compound 60, (1,4-diazabicyclo[3.2.2]nonan-4-yl)(3-(4-chloro-1H-pyrazol-1-yl)-6,7-dihydropyrano[4,3-c]pyrazol-1(4H)-yl)methanone]	4.8
O=C(N1CCN2CCC1CC2)n1nc(-n2cc(C(F)(F)F)cn2)c2c1[C@H]1C[C@H]1C2 [Compound 61, (1,4-diazabicyclo[3.2.2]nonan-4-yl)((4aS,5aS)-3-(4-(trifluoromethyl)-1H-pyrazol-1-yl)-4,4a,5,5a-tetrahydro-1H-cyclopropa[4,5]cyclopenta[1,2-c]pyrazol-1-yl)methanone]	0.1
CC1CCOc2c1c(-c1ccc(F)cc1)nn2C(=O)N1CCN2CCC1CC2 (stereo not drawn) [Compound 62, R and S-(1,4-diazabicyclo[3.2.2]nonan-4-yl)(3-(4-fluorophenyl)-4-methyl-5,6-dihydropyrano[2,3-c]pyrazol-1(4H)-yl)methanone]	7.7
CC1CCc2c(-c3ccc(F)cc3)nn(C(=O)N3CCN4CCC3CC4)c2O1 (stereo not drawn) [Compound 63, R and S-(1,4-diazabicyclo-[3.2.2]nonan-4-yl)(3-(4-fluorophenyl)-6-methyl-5,6-dihydropyrano[2,3-c]pyrazol-1(4H)-yl)methanone]	17.5
Cc1c(-c2ccc(F)cc2)nn(C(=O)N2CCN3CCC2CC3)c1C [Compound 64, (1,4-diazabicyclo[3.2.2]nonan-4-yl)(3-(4-fluorophenyl)-4,5-dimethyl-1H-pyrazol-1-yl)methanone]	8.8

Test system: GD and PD patient-derived induced pluripotent stem cell (iPSC) neurons
Assay: not given
Settings: Zunke, F. et al., Neuron 2018; cited from earlier work

SMILES	formation of pathological α-synuclein aggregates
CCCCCCCC(=O)N[C@H](CN1CCCC1)[C@H](O)c1ccc2c(c1)OCCO2 [eliglustat, Eliglustat]	reverse the formation of pathological α-synuclein aggregates
